Measurements from article PMC11234063, “Eugenol and lidocaine inhibit voltage-gated Na^+ channels from dorsal root ganglion neurons with different mechanisms” (Frontiers in Pharmacology, 2024).
Several values for one entry are separate records, joined by “and”; a condition that tells them apart may be missing. Equal values may be shown once. Entries after “also recorded” stand apart in the source; their conditions may differ. Read-outs that look alike come from different tables or passages of the source.

Legend:
Assay type in all cases: cell-based, rat
[1] = system: total INa (VGSCs of DRG neurons); test: Steady-state inactivation, 100-ms conditioning pre-pulses, total INa; details: EUG 2 mM, LID 1 mM
[2] = system: persistent total INa (DRG neurons); test: Persistent total INa at the end of 50-ms depolarizing pulses; details: EUG 2 mM, LID 1 mM
[3] = system: TTX-R INa (VGSCs of DRG neurons); test: Slow inactivation entry, three-pulse protocol, TTX-R INa
[4] = system: TTX-R INa (VGSCs of DRG neurons); test: Voltage dependence of Na+ conductance activation (I-V and G-V curves), TTX-R INa; details: EUG 2 mM
[5] = system: TTX-R INa (VGSCs of DRG neurons)
[6] = system: total INa (VGSCs of DRG neurons); test: Voltage dependence of Na+ conductance activation (I-V and G-V curves), total INa; details: EUG 2 mM
DRG neuron = test: Action potential firing, current clamp; details: EUG 1 mM; 1-ms 1-nA depolarizing current injection
[7] = system: TTX-R INa (VGSCs of DRG neurons); details: EUG 2 mM, LID 1 mM
[8] = system: TTX-R INa (VGSCs of DRG neurons); remark: listed apart in the source
[9] = system: total INa (VGSCs of DRG neurons); test: INa inactivation time constants during test pulse, total INa
[10] = system: TTX-R INa (VGSCs of DRG neurons); details: EUG 2 mM, LID 1 mM; remark: listed apart in the source
[11] = system: total INa (VGSCs of DRG neurons); test: Inhibition in depolarization time series at 2 and 5 Hz, total INa; details: EUG 2 mM, LID 1 mM
[12] = system: total INa (VGSCs naturally expressed on dorsal root ganglion sensory neurons); test: Dose–response inhibition of total INa peak, whole-cell patch clamp
[13] = system: total INa (VGSCs of DRG neurons); test: Slow inactivation entry, three-pulse protocol, total INa
[14] = individual cells, during exposure to EUG 2 mM or LID 1 mM
[15] = inhibition at all activating voltages

## C=CCc1ccc(O)c(OC)c1 [EUG, 4-allyl-2-methoxyphenol]
[1]
  Max slope-inact: −12.2 ± 10.7 (n = 9) ns mV/e-fold
  V1/2-inact: −63.85 ± 2.92 (n = 9) mV
[1]; individual cells
  Max slope-inact in individual cells: -14.8 mV/efold and -10.65 mV/efold and -13.47 mV/efold and -10.21 mV/efold and -17.93 mV/efold and -9.046 mV/efold and -7.985 mV/efold and -14.87 mV/efold and -11.22 mV/efold
  V1/2-inact in individual cells: -63.75 mV and -57.14 mV and -69.63 mV and -55.48 mV and -75.79 mV and -59.29 mV and -57.64 mV and -78.67 mV and -57.24 mV
[2]
  Inhibition of persistent total INa after 50-ms depolarization: remarkably inhibited; also recorded: effectively inhibits
[3]; EUG 2 mM, LID 1 mM
  Fast inactivation entry time constant: 76.58 ± 30.563^ns ms
  Fractional current when P1 = 2 m: 0.93 ± 0.028^ns
  Percent fast component (slow inactivation entry): 47.56 ± 16.257^ns %
  Slow inactivation entry time constant: 631.05 ± 282.320^ns
[3]; [14]
  Slow inactivation state entry kinetics of INa, individual cells: 558.80 and 167.30 and 405.40 and 711.30 and 255.80
[4]; LID 1 mM
  Max slope-act: 6.4 ± 0.4 (n = 7) mV/e-fold
  V1/2-act: −11.5 ± 1.96 (n = 7) ns mV
[4]; [15]
  Effect on reversal potential of the currents: without significantly affecting
[4]; individual cells, LID 1 mM
  Max slope-act in individual cells: 6.818 mV/efold and 6.311 mV/efold and 5.452 mV/efold and 4.894 mV/efold and 8.267 mV/efold and 6.510 mV/efold and 6.698 mV/efold
  V1/2-act in individual cells: -9.916 mV and -13.33 mV and -16.67 mV and -10.24 mV and -5.511 mV and -5.684 mV and -19.13 mV
[5]
  Effect on inactivation time constants: unaffected
[6]; LID 1 mM
  Max slope-act: 5.4 ± 0.41 (n = 9) mV/e-fold
  V1/2-act: −13.8 ± 2.18 (n = 9) mV
[6]; [15]
  Effect on reversal potential of the currents: without significantly affecting
[6]; individual cells, LID 1 mM
  Max slope-act in individual cells: 5.526 mV/efold and 5.494 mV/efold and 4.967 mV/efold and 6.616 mV/efold and 5.996 mV/efold and 6.156 mV/efold and 4.306 mV/efold and 2.717 mV/efold and 6.496 mV/efold
  V1/2-act in individual cells: -10.73 mV and -7.173 mV and -19.64 mV and -5.137 mV and -8.98 mV and -24.01 mV and -14.91 mV and -13.00 mV and -20.84 mV
DRG neuron
  Effect on action potential firing: promptly inhibits action potential firing; also recorded: prevents neurons from firing action potentials
[7]
  Fractional inhibition, 2 Hz, 20th pulse: 0.44 ± 0.064 (n = 6)
  Fractional inhibition, 5 Hz, 20th pulse: 0.49 ± 0.061 (n = 6)
[7]; individual cells
  Fractional current after blockade, 2 Hz, 1st pulse, individual cells: 0.62 and 0.6 and 0.47 and 0.55
  Fractional current after blockade, 2 Hz, 20th pulse, individual cells: 0.56 and 0.48 and 0.36 and 0.46
  Fractional current after blockade, 5 Hz, 1st pulse, individual cells: 0.75 and 0.63 and 0.55 and 0.51
  Fractional current after blockade, 5 Hz, 20th pulse, individual cells: 0.66 and 0.54 and 0.36 and 0.43
[8]
  Reversibility of inhibition after drug washout: fully reversible
[8]; drug at 0.1 mM
  Dose response curves' data, Average (fractional current): 0.96
[8]; drug at 0.3 mM
  Dose response curves' data, Average (fractional current): 0.92
[8]; drug at 1 mM
  Dose response curves' data, Average (fractional current): 0.85
[8]; drug at 3 mM
  Dose response curves' data, Average (fractional current): 0.34
[8]; drug at 10 mM
  Dose response curves' data, Average (fractional current): 0.14
[8]; drug at 30 mM
  Dose response curves' data, Average (fractional current): 0.00
[8]; holding −110 mV, test +20 mV
  IC50: 2.21 ± 0.08 mM
[8]; time 15 sec, drug exposure
  Time series of INa blockade, Average (normalized current): 0.62
[8]; time 20 sec, drug exposure
  Time series of INa blockade, Average (normalized current): 0.62
[8]; time 25 sec, drug exposure
  Time series of INa blockade, Average (normalized current): 0.63
[8]; time 30 sec, recovery
  Time series of INa blockade, Average (normalized current): 1.00
[8]; time 35 sec, recovery
  Time series of INa blockade, Average (normalized current): 1.04
[8]; time 40 sec, recovery
  Time series of INa blockade, Average (normalized current): 1.03
[9]
  Effect on inactivation time constants: unaffected
[10]; 100-ms conditioning pulse
  Shift of the steady-state inactivation curve, on average: −5 mV
[10]
  Max slope-inact: −5.83 ± 0.43 (n = 7) ns mV/e-fold
  V1/2-inact: −36.9 ± 2.48 (n = 7) mV
[10]; individual cells
  Max slope-inact in individual cells: -5.184 mV/efold and -6.728 mV/efold and -5.779 mV/efold and -3.945 mV/efold and -7.158 mV/efold and -6.792 mV/efold and -5.233 mV/efold
  V1/2-inact in individual cells: -28.59 mV and -33.94 mV and -32.48 mV and -34.07 mV and -46.4 mV and -44.79 mV and -37.94 mV
[11]
  Fractional inhibition, 2 Hz, 1st pulse: 0.53 ± 0.049 (n = 9)
  Fractional inhibition, 5 Hz, 1st pulse: 0.49 ± 0.056 (n = 8)
[11]; individual cells
  Fractional current after blockade, 2 Hz, 1st pulse, individual cells: 0.40 and 0.52 and 0.58 and 0.37 and 0.28 and 0.50 and 0.730 and 0.29 and 0.53
  Fractional current after blockade, 2 Hz, 20th pulse, individual cells: 0.36 and 0.54 and 0.56 (2×) and 0.34 and 0.15 and 0.49 and 0.74 and 0.26
  Fractional current after blockade, 5 Hz, 1st pulse, individual cells: 0.4 and 0.56 and 0.58 and 0.35
  Fractional current after blockade, 5 Hz, 20th pulse, individual cells: 0.31 (2×) and 0.47 and 0.54
[12]; EUG at 1.3 mM
  Pre-inhibition of total INa: ~25%
[12]; fast single-cell superfusion, 0.2 Hz time series
  Time to inhibition of INa upon addition: less than 5 s
[12]; total INa
  Reversibility of inhibition after drug washout: fully reversible
[12]; total INa, EUG 0.1 mM in the presence of LID 0.5 mM
  Dose response curves' data, Average (fractional current), EUG (LID 0.5 mM): 0.97
[12]; total INa, EUG 0.3 mM in the presence of LID 0.5 mM
  Dose response curves' data, Average (fractional current), EUG (LID 0.5 mM): 0.85
[12]; total INa, EUG 1 mM in the presence of LID 0.5 mM
  Dose response curves' data, Average (fractional current), EUG (LID 0.5 mM): 0.60
[12]; total INa, EUG 3 mM in the presence of LID 0.5 mM
  Dose response curves' data, Average (fractional current), EUG (LID 0.5 mM): 0.46
[12]; total INa, EUG 10 mM in the presence of LID 0.5 mM
  Dose response curves' data, Average (fractional current), EUG (LID 0.5 mM): 0.10
[12]; total INa, drug at 0.001 mM
  Dose response curves' data, Average (fractional current): 1.00
[12]; total INa, drug at 0.1 mM
  Dose response curves' data, Average (fractional current): 0.98
[12]; total INa, drug at 0.3 mM
  Dose response curves' data, Average (fractional current): 0.93
[12]; total INa, drug at 1 mM
  Dose response curves' data, Average (fractional current): 0.86
[12]; total INa, drug at 3 mM
  Dose response curves' data, Average (fractional current): 0.36
[12]; total INa, drug at 10 mM
  Dose response curves' data, Average (fractional current): 0.07
[12]; total INa, drug at 30 mM
  Dose response curves' data, Average (fractional current): 0.01
[12]; total INa, holding −110 mV, test +20 mV, drug alone
  IC50: 2.27 ± 0.075 mM
[12]; total INa, time 15 sec, drug exposure
  Time series of INa blockade, Average (normalized current): 0.55
[12]; total INa, time 20 sec, drug exposure
  Time series of INa blockade, Average (normalized current): 0.54
[12]; total INa, time 25 sec, drug exposure
  Time series of INa blockade, Average (normalized current): 0.54
[12]; total INa, time 30 sec, recovery
  Time series of INa blockade, Average (normalized current): 0.96
[12]; total INa, time 35 sec, recovery
  Time series of INa blockade, Average (normalized current): 0.99
[12]; total INa, time 40 sec, recovery
  Time series of INa blockade, Average (normalized current): 0.99
[13]; EUG 2 mM, LID 1 mM
  Fast inactivation entry time constant: 792.48 ± 298.530 ^ns ms
  Fractional current when P1 = 2 m: 0.82 ± 0.034 ^ns
  Percent fast component (slow inactivation entry): 26.92 ± 4.583 ^ns %
  Slow inactivation entry time constant: 1,142.30 ± 246.525 ^ns
[13]; [14]
  Slow inactivation state entry kinetics of INa, individual cells: 713.90 and 1928.00 and 344.50 and 1032.00 and 1066.00

## C/C=C\c1ccc(O)c(OC)c1 [IEUG]
[12]; total INa, drug at 3 mM
  Dose response curves' data, Average (fractional current): 0.40
[12]; total INa, drug at 10 mM
  Dose response curves' data, Average (fractional current): 0.02
